{"source": "patent US20260146060A1", "about": "“PHOSPHORAMIDITE CONJUGATES AND METHODS OF FORMING SYNTHETIC OLIGONUCLEOTIDES THEREFROM” (CARNEGIE MELLON UNIVERSITY, priority 2022, published 2026)", "key": {"Beta*": {"tested_on": "Beta*", "assay": "Hybridization with complementary DNA, native gel electrophoresis", "assay_type": "binding", "details": "stoichiometric complementary DNA, temperature annealing, for Beta-SBiB2 the complementary strand is not stated", "excerpt": "(§1) Hybridization-driven self-assembly has made DNA a versatile building material for nanoscience. The sequence control over SBiB incorporation in DNA can expand the availability of DNA-initiators as new precursors for the fabrication of hybrid nanomaterials. Towards such an end, the hybridization of a mixed oligonucleotide sequence containing an internal SBiB initiator residue in the middle (Beta-SBiB1) was studied with a stoichiometric amount of complementary DNA followed by temperature annealing. For hybridization experiments, two different complementary strands to Beta-SBiB1 were used: one which was fully complementary to the Beta sequence (Beta*) and another that was fully complementary to the Beta sequence with the additional inclusion of a mismatched T residue opposite the SBiB location within the Beta sequence (Beta*Tmm). Beta*Tmm was used to evaluate if the single T residue opposite the 3 carbons insert of SBiB could reduce the strain during duplex formation.\n(§2) Double-stranded DNA preparation and melting curve analysis. Desired single-stranded DNA (Beta or Beta-SBiB) was mixed with a stoichiometric amount of complementary DNA (Beta* or Beta*Tmm) at a final concentration of 20 μM in 1×PBS. The DNA mixture was placed in a heat block at 95° C. for 5 min. Following the heating process, the heat block was turned off and slowly cooled to room temperature (approx. 0.5° C./min). […]"}, "Beta*Tmm": {"tested_on": "Beta*Tmm", "assay": "Hybridization with complementary DNA carrying a mismatched T, native gel electrophoresis", "assay_type": "binding", "details": "stoichiometric complementary DNA, temperature annealing", "excerpt": "as §1, §2"}, "[1]": {"assay": "Stability assay in 10% FBS (gel electrophoresis of remaining DNA)", "details": "37° C., 5.3 μM; for time until entirely degraded: 10% FBS and 1X PBS"}}}
{"substance": "Beta-SBiB1: ACG TCG AGC AGT /i/ CAG AGC TGT, i = SBiB residue", "values": [{"measurement": "hybridization (duplex formation)", "setting": "Beta*", "value": "successfully hybridize"}, {"measurement": "hybridization (duplex formation)", "setting": "Beta*Tmm", "value": "successfully hybridize"}]}
{"substance": "Beta-SBiB3: /i/ ACG TCG AGC AGT /i/ CAG AGC TG /i/ T", "values": [{"measurement": "degradation", "setting": "[1]; 10% FBS, after 24 hours", "value": 46, "unit": "%"}]}
{"substance": "unmodified Beta DNA: purchased 21-mer DNA, ACGTCGAGCAGTCAGAGCTGT (DNA ACGTCGAGCAGTCAGAGCTGT; unmodified DNA)", "values": [{"measurement": "time until entirely degraded", "setting": "[1]; in the absence of free pOEOMA", "value": "≤ 12", "unit": "h"}, {"measurement": "time until entirely degraded", "setting": "[1]; in the presence of free pOEOMA in the supernatant", "value": "≤ 12", "unit": "h"}]}
